Assay results taken from US11324740B2, “Use of agonists of type-2 dopaminergic receptors in treatment of conditions caused by elevated vascular endothelial growth factor levels” (priority 2016, dated 2022).

Key:
Assay type in all cases: in vivo, Wistar strain rats
Details in all cases: cabergoline oral 0.05 mg/kg b.w. over 14 days
[1] = test system: experimental model for diabetic retinopathy; assay: Blood-retinal barrier permeability (dextran method) and retinal thickness (OCT) in streptozocin model for diabetic retinopathy
Experimental: (§1) The Effects of Administration of Cabergoline on Permeability of Blood-Retinal Barrier and on Retinal Thickness in an Experimental Model for Diabetic Retinopathy The research was conducted on an experimental model of Wistar strain rats. In order to cause diabetes, the rats were injected intraperitoneally with streptozocin at a dose of 60 mg/kg b.w. After 30 days since administration of streptozocin blood glucose level was checked and only rats with the blood glucose levels of over 250 mg % were qualified for the experiment. In the course of the experiment, the following parameters were assessed: permeability of blood-retinal barrier using the dextran method (BRB) and the thickness of the retina using optical coherence tomography (OCT). In the experiment, 4 experimental groups were compared: healthy animals without cabergoline administration, healthy animals with cabergoline administration (14 days of use), animals with diabetes without cabergoline, animals with diabetes with cabergoline (14 days of use). Cabergoline was administered to the animals in oral form at a dose of 0.05 mg/kg b.w. over 14 days.

[2] = test system: experimental model for central retinal vein occlusion; assay: Blood-retinal barrier permeability (dextran method) and retinal thickness (OCT) in laser model for central retinal vein occlusion
Experimental: as §1, with “and” for “and on”, “Central Retinal Vein Occlusion.” for “Diabetic Retinopathy”, “Central retinal vein occlusion was performed using” for “In order to cause diabetes, the rats were injected intraperitoneally with streptozocin at”, “532 nm laser.” for “dose of 60 mg/kg b.w. After 30 days since administration of streptozocin blood glucose level was checked and only rats with the blood glucose levels of over 250 mg % were qualified for the experiment.”, “central retinal vein occlusion” for “diabetes”

[3] = test system: experimental model for choroidal neovascularization (CNV); assay: Blood-retinal barrier permeability (dextran method) and retinal thickness (OCT) in laser model for choroidal neovascularization (CNV)
Experimental: as §1, with “and” for “and on”, “Choroidal Neovascularization (CNV).” for “Diabetic Retinopathy”, “Choroidal neovascularization (CNV) was performed by photocoagulation of” for “In order to cause diabetes,”, “retina using” for “rats were injected intraperitoneally with streptozocin at”, “532 nm laser.” for “dose of 60 mg/kg b.w. After 30 days since administration of streptozocin blood glucose level was checked and only rats with the blood glucose levels of over 250 mg % were qualified for the experiment.”, “CNV” for “diabetes”

[4] = rats with streptozocin diabetes
[5] = rats with central retinal vein occlusion

## C=CCN1C[C@H](C(=O)N(CCCN(C)C)C(=O)NCC)C[C@@H]2c3cccc4[nH]cc(c34)C[C@H]21 [cabergoline, Cabergoline]
[1]; healthy rats
  BRB (permeability of blood-retinal barrier, dextran method): 22.4 ± 7.5 µL/g/min
  OCT (thickness of the retina): 281 ± 14 μm
[1]; [4]
  BRB (permeability of blood-retinal barrier, dextran method): 35.8 ± 10.6 µL/g/min
  OCT (thickness of the retina): 320 ± 35 μm
[2]; healthy rats
  BRB (permeability of blood-retinal barrier, dextran method): 25.1 ± 4.2 µL/g/min
  OCT (thickness of the retina): 258 ± 13 μm
[2]; [5]
  BRB (permeability of blood-retinal barrier, dextran method): 33.3 ± 12.9 µL/g/min
  OCT (thickness of the retina): 343 ± 28 μm
[3]; healthy rats
  BRB (permeability of blood-retinal barrier, dextran method): 28.5 ± 6.6 µL/g/min
  OCT (thickness of the retina): 221 ± 22 μm
[3]; rats with CNV
  BRB (permeability of blood-retinal barrier, dextran method): 37.4 ± 15.2 µL/g/min
  OCT (thickness of the retina): 283 ± 17 μm
